Experimental data reported in patent publication US9622469B2, “Crosslink breakers for preservation of biological substances” (priority 2013, dated 2017).
Entries after “also recorded” stand apart in the source; their conditions may differ. Marks after values point to notes of the source that are not given here.

Tests used:
[1] = Cleavage of PPD (3) to benzoic acid by NHC precursors, Method B (MeCN co-solvent); type: biochemical
Experimental: (§1) Dicarbonyl cleavage reactions were performed using either the method described in Vasan et al., An agent cleaving glucose-derived protein crosslinks in vitro and in vivo, Nature (1996) Vol. 382, pp. 275-278 (Method A) or a modified method with MeCN as a co-solvent (Method B).
(§2) 60 mM solution of dicarbonyl substrate (45 μmol) in MeCN (0.75 ml) was added to 20 mM solution of NHC (15 μmol) in 0.15 M pH 7.4 sodium phosphate buffer (0.75 ml) and kept stirred at 37° C. At stated times, 75 μl aliquots were taken, diluted with 50% MeCN/H2O (425 μl) and analyzed by LCMS with 2,4-dihydroxyquinoline (248 μM) as an internal standard. The cleavage products were quantified by peak integration against the calibration curves.
Thus, our first goal in these studies was to assess the ability of various NHC precursors to induce the degradation of the dicarbonyl model substrate (PPD, 3). To this end, we screened the thiazolium (4-6), benzothiazolium (7), triazolium (8,9) and imidazolium (10) halide substructures shown in Table 1.

[2] = Cleavage of PPD by NHC precursors, Method A (alcoholic co-solvent); type: biochemical; conditions: co-solvent MeOH
Experimental: as §1
PPD (21 μl, 156 μmol) was added to a murky solution of NHC (2 or 4, 71 μmol) in 50% MeOH/0.5 M pH 7.4 sodium phosphate buffer (3.5 ml/3.5 ml; final conc. 10 mM NHC, 22 mM PPD) and kept stirred at 37° C. Approximately 0.5 ml aliquots were taken at stated times and analyzed by HPLC. Experiments using EtOH or iPrOH as a co-solvent were done in the same manner. Concentrations of benzoic acid and benzoate esters were determined by peak integration against the calibration curves.
Having learned that ALT-711 performed best among NHCs evaluated for PPD cleavage, we sought to test its substrate scope versus its N-benzyl counterpart (4). We therefore measured product distribution and yield while varying the co-solvent used to solubilize dicarbonyl substrates. As summarized in Table 2, we first investigated the performance of alcoholic co-solvents in PPD cleavage reactions. […] Despite this, however, the product distributions differed substantially: ALT-711 (2) predominantly afforded benzoic acid (PhCO2H:PhCO2Me=3.2:1, Entry 2), whereas 4 mostly gave rise to methyl benzoate (PhCO2H:PhCO2Me=1:2.2, Entry 4). Further replacement of the co-solvent with EtOH and i-PrOH in 4-catalyzed reactions led to a decrease in the proportion of ester production, still without altering overall yield (Entries 5 and 6).

[3] = NHC-mediated cleavage of bis-alkyl diketone 14, Method B; type: biochemical; conditions: LCMS, with respect to dicarbonyl
Experimental: as §2
(§3) Our efforts to investigate the scope of thiazolium salt-mediated reactions with dicarbonyls began with bis-alkyl diketone 14 (Table 3, Entry 1). This substrate is cleaved cleanly by 2, and affords acid 18 in 82% yield. NHC precursor 4, on the other hand, provides 18 in only 14% yield (Entry 2). The efficiency of dicarbonyl cleavage reactions decreases substantially in the case of benzil (15, Entry 3), which affords benzoic acid in 14% and 1% yield following exposure to 2 and 4, respectively.

[4] = NHC-mediated cleavage of benzil (15), Method B; type: biochemical; conditions: LCMS, with respect to dicarbonyl
Experimental: as §2, §3

[5] = NHC-mediated reaction with α-keto aldehyde phenylglyoxal (16), Method B; type: biochemical; conditions: isolated yield with respect to 2
Experimental: as §2
Phenylglyoxal hydrate (16; 114 mg, 0.75 mmol, 2 eq) was added to a solution of ALT-711 (2; 100 mg, 0.37 mmol) in 50% MeCN/0.15 M pH 7.4 phosphate buffer (total vol. 37 ml) and kept stirred at room temperature for 15 mins. The reaction mixture was cooled to −20° C. to precipitate out sodium phosphate as white crystals. The supernatant was transferred, and the residue was washed with MeCN and combined with the supernatant. This yellow clear solution was concentrated at room temperature to remove MeCN and purified by HPLC (16-27MeCN over 31 min). […]
(§4) Reactions involving α-keto aldehyde derivatives 16 and 17 followed an unexpected course. Treatment of these substrates with 2 led to instantaneous, high-yield production of a diastercomeric mixture of cycloadducts (19 and 20) that decompose to complex mixtures under the reaction conditions with half-lives of approximately 3 h Structures were determined based on in-depth NMR analysis (see Supplementary Material).

[6] = NHC-mediated reaction with α-keto aldehyde methylglyoxal (17), Method B; type: biochemical; conditions: isolated yield with respect to 2
Experimental: as §2
Four diastereomers (ALT-MGO-1 through ALT-MGO-4) were obtained with a similar method to ALT-PG using 2 (100 mg, 0.37 mmol) and 40% methylglyoxal (MOO, 17) solution (0.2 ml, 1.3 mmol, 3.5 eq). Purification was performed by HPLC (9-19% MeCN over 32 min), and the lyophilization of fractions afforded the title compounds as white solids (96% combined yield). See Supplementary Material for characterization data.
as §4

[7] = system: stored mouse blood; test: Glucose in serum of stored mouse blood (glucose oxidase enzymatic assay); type: cell-based; conditions: typical storage conditions, up to 14 days
Experimental: (§5) Leuko-reduced mouse blood was stored under typical storage conditions for up to 14 days, in either OCR6043, control compound, or without any treatment. FIG. 2A illustrates an analysis of glucose in the serum from the stored blood was evaluated using a glucose oxidase enzymatic assay. […] FIG. 2B illustrates the AGE precursor levels on RBCs were measured using a dicarbonyl-specific fluorophore that was developed in-house. The time dependent increase in the AGE precursor levels was dampened in the presence of OCR6043. FIG. 2C illustrates mouse blood that was stored for 14 days, was evaluated for its immunogenicity upon transfusion, by testing for IgGs against an alloantigen on the RBCs (HOD=HEL-OVA-Duffy).

[8] = system: AGE precursor (α-dicarbonyl) on RBCs; test: AGE precursor (α-dicarbonyl) levels on stored RBCs (dicarbonyl-specific fluorophore); type: cell-based, mouse; conditions: typical storage conditions, up to 14 days
Experimental: as §5

[9] = system: HOD alloantigen on stored RBCs; test: Immunogenicity of stored blood upon transfusion (anti-HOD IgG ELISA); type: in vivo, mouse; conditions: blood stored 14 days, transfused into B6 mice, 14 days following transfusion
Experimental: as §5
OCR6043 treatment decreases immunogenicity, and enhances post-transfusion recovery of stored mouse blood. Leukoreduced mouse blood was stored under typical storage conditions for up to 14 days in either OCR6043 or without any treatment. This mouse blood was evaluated for its immunogenicity upon transfusion by testing for IgGs against an alloantigen on the RBCs (HOD=HEL-OVA-Duffy).
As described herein, the stored blood has an HOD marker allowing facile detection after transfusion. We transfused […] of stored blood into B6 mice (not expressing the HOD antigen). […] The anti-HOD IgG response was evaluated using standard ELISA techniques described in Hendrickson et at.

[10] = various animal studies and clinical trials; cited from earlier work
[11] = rats; cited from earlier work

Cc1sc[n+](CC(=O)c2ccccc2)c1C.[Cl-] [Compound 2]
Benzoic acid formation from 3 (in words) ([1]; Method B screen of NHC precursors): highest overall yield
Combined % Yield (PhCO2H) ([1]; co-solvent MeCN, Method B, LCMS, with respect to dicarbonyl): 61%
Combined % Yield (PhCO2H, PhCO2Me) [2]: 54%
% Yield of acid 18 from substrate 14 [3]: 82%
% Yield of PhCO2H from substrate 15 (benzil) [4]: 14%
% Yield of cycloadduct 19 from substrate 16 [5]: 55^b %
% Yield of cycloadduct 20 from substrate 17 [6]: 96^b %
Glucose levels in serum of stored blood [7]: more effective preservation of glucose levels
Time dependent increase in AGE precursor levels on RBCs [8]: dampened
Immunogenicity upon transfusion (IgG against HOD alloantigen) ([9]; listed as ALT-711): lower immunogenicity
Immunogenicity upon transfusion (IgG against HOD alloantigen) ([9]; listed as OCR6043): decreased immunogenicity; also recorded: attenuated this immune response
Toxicity to animals and humans [10]: non-toxic
MGO levels and MGO-induced glucose intolerance [11]: lowered MOO levels and attenuated MOO-induced glucose intolerance
